What was measured:
[1] = tested on: MCF7R; test: MDR-reversal activity evaluated against the resistant human breast tumor cell line MCF7-R; type: functional; design: concentration or dose not given beside the values
[2] = tested on: MDA-MB-435; test: MDR-reversal activity evaluated against the resistant human breast tumor cell line MDA-435/LCC6-MDR; type: functional; design: concentration or dose not given beside the values

| SMILES | Reduction [1] [%] | Reduction [2] [%] |
| --- | --- | --- |
| CC(=O)O[C@H]1C(=O)[C@]2(C)[C@@H](OC(=O)/C=C/c3ccc(C(=O)c4ccccc4)cc3)C[C@H]3OC[C@@]3(OC(C)=O)[C@H]2[C@H](OC(=O)c2ccccc2)[C@]2(O)C[C@H](OC(C)=O)C(C)=C1C2(C)C | 99.7 | 92 |
| CC(=O)O[C@H]1C(=O)[C@]2(C)[C@@H](OC(=O)/C=C/c3cccc4ccccc34)C[C@H]3OC[C@@]3(OC(C)=O)[C@H]2[C@H](OC(=O)c2ccccc2)[C@]2(O)C[C@H](O)C(C)=C1C2(C)C | 96 | 50 |

— ChEMBL document CHEMBL1145206, “Design, synthesis and structure-activity relationships of novel taxane-based multidrug resistance reversal agents” (2005)
